The supplement of paper PMC13380429

Columns and labels:
[1] = test system: A549-ACE2 infected with SARS-CoV-2; assay: cell count relative to DMSO; higher = less toxic; settings: 24 h
Caco-2 [2] = assay: cell viability relative to DMSO; higher = less toxic; settings: 72 h
Calu-3 [3] = assay: as above; settings: 72 h
HepG2 [4] = assay: as above; settings: 72 h
U2OS [5] = assay: as above; settings: 72 h
Vero E6 [6] = assay: as above; settings: 72 h
[7] = test system: A549-ACE2 infected with SARS-CoV-2; assay: SARS-CoV-2 infection rate relative to DMSO; higher = more infection; settings: 24 h
A549-ACE2 [8] = assay: phospholipidosis EC50; higher = less potent phospholipidosis inducer
A549-ACE2 [9] = assay: drug-induced phospholipidosis relative to tamoxifen; higher = more phospholipidosis
[10] = test system: A549-ACE2 infected with SARS-CoV-2; assay: morphology score (similarity to uninfected cells); higher = more like uninfected cells; settings: 24 h
HepG2 [11] = assay: relative viability EC50 (midpoint between 100% and the lowest measured viability); higher = less toxic; settings: 72 h
Vero E6 [12] = assay: as above; settings: 72 h
Caco-2 [13] = assay: drug sensitivity score (DSS) for viability; higher = more toxic; extreme values may be limits of the assay; settings: 72 h
Calu-3 [14] = assay: as above; settings: 72 h
HepG2 [15] = assay: as above; settings: 72 h
U2OS [16] = assay: as above; settings: 72 h
Vero E6 [17] = assay: as above; settings: 72 h
Caco-2 [18] = assay: relative viability EC50 (midpoint between 100% and the lowest measured viability); higher = less toxic; settings: 72 h
Calu-3 [19] = assay: as above; settings: 72 h
U2OS [20] = assay: as above; settings: 72 h

CCOC(=O)c1c(C)[nH]c2ccc3c(c12)CN1CCc2cc(OC)ccc2C1O3 (stereo not given)
cell count ([1]; 0.3 µM): 98%
cell count ([1]; 3 µM): 112%
cell count ([1]; 10 µM): 114%
cell count ([1]; 30 µM): 92%
cell viability (Caco-2 [2]; 1 nM): 103%
cell viability (Caco-2 [2]; 10 nM): 98.8%
cell viability (Caco-2 [2]; 100 nM): 95.8%
cell viability (Caco-2 [2]; 1000 nM): 93.1%
cell viability (Caco-2 [2]; 10000 nM): 53.6%
cell viability (Calu-3 [3]; 1 nM): 102%
cell viability (Calu-3 [3]; 10 nM): 101%
cell viability (Calu-3 [3]; 100 nM): 109%
cell viability (Calu-3 [3]; 1000 nM): 98.4%
cell viability (Calu-3 [3]; 10000 nM): 53.6%
cell viability (HepG2 [4]; 1 nM): 93.2%
cell viability (HepG2 [4]; 10 nM): 92.8%
cell viability (HepG2 [4]; 100 nM): 97.2%
cell viability (HepG2 [4]; 1000 nM): 78.4%
cell viability (HepG2 [4]; 10000 nM): 29%
cell viability (U2OS [5]; 1 nM): 97.3%
cell viability (U2OS [5]; 10 nM): 100%
cell viability (U2OS [5]; 100 nM): 99.8%
cell viability (U2OS [5]; 1000 nM): 98.3%
cell viability (U2OS [5]; 10000 nM): 61%
cell viability (Vero E6 [6]; 1 nM): 102%
cell viability (Vero E6 [6]; 10 nM): 104%
cell viability (Vero E6 [6]; 100 nM): 92%
cell viability (Vero E6 [6]; 1000 nM): 91.5%
cell viability (Vero E6 [6]; 10000 nM): 80.1%
SARS-CoV-2 infection rate ([7]; 0.3 µM): 105%
SARS-CoV-2 infection rate ([7]; 3 µM): 59%
SARS-CoV-2 infection rate ([7]; 10 µM): 25%
SARS-CoV-2 infection rate ([7]; 30 µM): 26%
phospholipidosis EC50 (A549-ACE2 [8]; 24 h): 9.3 µM
drug-induced phospholipidosis (A549-ACE2 [9]; 0.3 µM, 24 h): 2.45%
drug-induced phospholipidosis (A549-ACE2 [9]; 0.3 µM, 48 h): 1.49%
drug-induced phospholipidosis (A549-ACE2 [9]; 0.3 µM, 72 h): 3.49%
drug-induced phospholipidosis (A549-ACE2 [9]; 0.833333 µM, 24 h): 1.52%
drug-induced phospholipidosis (A549-ACE2 [9]; 0.833333 µM, 48 h): 1.91%
drug-induced phospholipidosis (A549-ACE2 [9]; 0.833333 µM, 72 h): 0.0297%
drug-induced phospholipidosis (A549-ACE2 [9]; 3.33333 µM, 24 h): 13.8%
drug-induced phospholipidosis (A549-ACE2 [9]; 3.33333 µM, 48 h): 7.41%
drug-induced phospholipidosis (A549-ACE2 [9]; 3.33333 µM, 72 h): 4.37%
drug-induced phospholipidosis (A549-ACE2 [9]; 6.66667 µM, 24 h): 23.7%
drug-induced phospholipidosis (A549-ACE2 [9]; 6.66667 µM, 48 h): 9.35%
drug-induced phospholipidosis (A549-ACE2 [9]; 6.66667 µM, 72 h): 8.63%
drug-induced phospholipidosis (A549-ACE2 [9]; 10 µM, 24 h): 49.6%
drug-induced phospholipidosis (A549-ACE2 [9]; 10 µM, 48 h): 10.9%
drug-induced phospholipidosis (A549-ACE2 [9]; 10 µM, 72 h): 10.6%
drug-induced phospholipidosis (A549-ACE2 [9]; 30 µM, 24 h): 77.6%
drug-induced phospholipidosis (A549-ACE2 [9]; 30 µM, 48 h): 99.9%
drug-induced phospholipidosis (A549-ACE2 [9]; 30 µM, 72 h): 83.4%
morphology score ([10]; 0.3 µM): -0.2
morphology score ([10]; 3 µM): 0.69
morphology score ([10]; 10 µM): 0.83
morphology score ([10]; 30 µM): 0.42
relative viability EC50 (HepG2 [11]): 1.4 µM
relative viability EC50 (Vero E6 [12]): > 10 µM
drug sensitivity score (Caco-2 [13]): 3.6
drug sensitivity score (Calu-3 [14]): 2.6
drug sensitivity score (HepG2 [15]): 7.1
drug sensitivity score (U2OS [16]): 2.2
drug sensitivity score (Vero E6 [17]): 1.1

FC(F)(F)c1cc(CO[C@H]2CCCN[C@H]2c2ccccc2)cc(C(F)(F)F)c1
cell count ([1]; 0.3 µM): 100%
cell count ([1]; 3 µM): 113%
cell count ([1]; 10 µM): 121%
cell count ([1]; 30 µM): 69%
cell viability (Caco-2 [2]; 1 nM): 108%
cell viability (Caco-2 [2]; 10 nM): 106%
cell viability (Caco-2 [2]; 100 nM): 91.1%
cell viability (Caco-2 [2]; 1000 nM): 87.2%
cell viability (Caco-2 [2]; 10000 nM): 83.6%
cell viability (Calu-3 [3]; 1 nM): 97.4%
cell viability (Calu-3 [3]; 10 nM): 97.6%
cell viability (Calu-3 [3]; 100 nM): 102%
cell viability (Calu-3 [3]; 1000 nM): 101%
cell viability (Calu-3 [3]; 10000 nM): 18.1%
cell viability (HepG2 [4]; 1 nM): 104%
cell viability (HepG2 [4]; 10 nM): 97.9%
cell viability (HepG2 [4]; 100 nM): 97.8%
cell viability (HepG2 [4]; 1000 nM): 107%
cell viability (HepG2 [4]; 10000 nM): 88.4%
cell viability (U2OS [5]; 1 nM): 104%
cell viability (U2OS [5]; 10 nM): 101%
cell viability (U2OS [5]; 100 nM): 105%
cell viability (U2OS [5]; 1000 nM): 96.2%
cell viability (U2OS [5]; 10000 nM): 92.1%
cell viability (Vero E6 [6]; 1 nM): 96.7%
cell viability (Vero E6 [6]; 10 nM): 102%
cell viability (Vero E6 [6]; 100 nM): 102%
cell viability (Vero E6 [6]; 1000 nM): 99.1%
cell viability (Vero E6 [6]; 10000 nM): 89.4%
SARS-CoV-2 infection rate ([7]; 0.3 µM): 95%
SARS-CoV-2 infection rate ([7]; 3 µM): 57%
SARS-CoV-2 infection rate ([7]; 10 µM): 16%
SARS-CoV-2 infection rate ([7]; 30 µM): 42%
phospholipidosis EC50 (A549-ACE2 [8]; 24 h): 2.17 µM
phospholipidosis EC50 (A549-ACE2 [8]; 48 h): 2.92 µM
phospholipidosis EC50 (A549-ACE2 [8]; 72 h): 3.8 µM
drug-induced phospholipidosis (A549-ACE2 [9]; 0.3 µM, 24 h): 3.76%
drug-induced phospholipidosis (A549-ACE2 [9]; 0.3 µM, 48 h): 4.92%
drug-induced phospholipidosis (A549-ACE2 [9]; 0.3 µM, 72 h): 5.63%
drug-induced phospholipidosis (A549-ACE2 [9]; 0.833333 µM, 24 h): 11.4%
drug-induced phospholipidosis (A549-ACE2 [9]; 0.833333 µM, 48 h): 7.68%
drug-induced phospholipidosis (A549-ACE2 [9]; 0.833333 µM, 72 h): 5.43%
drug-induced phospholipidosis (A549-ACE2 [9]; 3.33333 µM, 24 h): 79.2%
drug-induced phospholipidosis (A549-ACE2 [9]; 3.33333 µM, 48 h): 61.5%
drug-induced phospholipidosis (A549-ACE2 [9]; 3.33333 µM, 72 h): 40.2%
drug-induced phospholipidosis (A549-ACE2 [9]; 6.66667 µM, 24 h): 99.1%
drug-induced phospholipidosis (A549-ACE2 [9]; 6.66667 µM, 48 h): 89.2%
drug-induced phospholipidosis (A549-ACE2 [9]; 6.66667 µM, 72 h): 85%
drug-induced phospholipidosis (A549-ACE2 [9]; 10 µM, 24 h): 104%
drug-induced phospholipidosis (A549-ACE2 [9]; 10 µM, 48 h): 97.2%
drug-induced phospholipidosis (A549-ACE2 [9]; 10 µM, 72 h): 93%
morphology score ([10]; 0.3 µM): 0.12
morphology score ([10]; 3 µM): 0.72
morphology score ([10]; 10 µM): 0.92
morphology score ([10]; 30 µM): 0.01
relative viability EC50 (Caco-2 [18]): > 10 µM
relative viability EC50 (Calu-3 [19]): 3.27 µM
relative viability EC50 (HepG2 [11]): > 10 µM
relative viability EC50 (U2OS [20]): > 10 µM
relative viability EC50 (Vero E6 [12]): > 10 µM
drug sensitivity score (Caco-2 [13]): 2.5
drug sensitivity score (Calu-3 [14]): 4.4
drug sensitivity score (HepG2 [15]): 0
drug sensitivity score (U2OS [16]): 0
drug sensitivity score (Vero E6 [17]): 0

NC(=O)c1cnc(N[C@@H]2CCCC[C@@H]2N)nc1Nc1cccc(-n2nccn2)c1
cell count ([1]; 0.3 µM): 94%
cell count ([1]; 3 µM): 101%
cell count ([1]; 10 µM): 50%
cell count ([1]; 30 µM): 1%
cell viability (Caco-2 [2]; 1 nM): 94.6%
cell viability (Caco-2 [2]; 10 nM): 92.9%
cell viability (Caco-2 [2]; 100 nM): 91.5%
cell viability (Caco-2 [2]; 1000 nM): 93%
cell viability (Caco-2 [2]; 10000 nM): 44.7%
cell viability (Calu-3 [3]; 1 nM): 97.3%
cell viability (Calu-3 [3]; 10 nM): 94.5%
cell viability (Calu-3 [3]; 100 nM): 101%
cell viability (Calu-3 [3]; 1000 nM): 69.6%
cell viability (Calu-3 [3]; 10000 nM): 45.2%
cell viability (HepG2 [4]; 1 nM): 101%
cell viability (HepG2 [4]; 10 nM): 101%
cell viability (HepG2 [4]; 100 nM): 99.1%
cell viability (HepG2 [4]; 1000 nM): 95%
cell viability (HepG2 [4]; 10000 nM): 31.7%
cell viability (U2OS [5]; 1 nM): 99.7%
cell viability (U2OS [5]; 10 nM): 96.8%
cell viability (U2OS [5]; 100 nM): 106%
cell viability (U2OS [5]; 1000 nM): 93.9%
cell viability (U2OS [5]; 10000 nM): 46.1%
cell viability (Vero E6 [6]; 1 nM): 98.9%
cell viability (Vero E6 [6]; 10 nM): 100%
cell viability (Vero E6 [6]; 100 nM): 91.1%
cell viability (Vero E6 [6]; 1000 nM): 98.4%
cell viability (Vero E6 [6]; 10000 nM): 81.6%
SARS-CoV-2 infection rate ([7]; 0.3 µM): 104%
SARS-CoV-2 infection rate ([7]; 3 µM): 32%
SARS-CoV-2 infection rate ([7]; 10 µM): 72%
SARS-CoV-2 infection rate ([7]; 30 µM): 121%
phospholipidosis EC50 (A549-ACE2 [8]; 24 h): 6.68 µM
phospholipidosis EC50 (A549-ACE2 [8]; 48 h): 4.26 µM
drug-induced phospholipidosis (A549-ACE2 [9]; 0.3 µM, 24 h): 1.48%
drug-induced phospholipidosis (A549-ACE2 [9]; 0.3 µM, 48 h): 4.57%
drug-induced phospholipidosis (A549-ACE2 [9]; 0.3 µM, 72 h): 3.49%
drug-induced phospholipidosis (A549-ACE2 [9]; 0.833333 µM, 24 h): 0.83%
drug-induced phospholipidosis (A549-ACE2 [9]; 0.833333 µM, 48 h): 2.08%
drug-induced phospholipidosis (A549-ACE2 [9]; 0.833333 µM, 72 h): -1.55%
drug-induced phospholipidosis (A549-ACE2 [9]; 3.33333 µM, 24 h): 27.1%
drug-induced phospholipidosis (A549-ACE2 [9]; 3.33333 µM, 48 h): 16.9%
drug-induced phospholipidosis (A549-ACE2 [9]; 3.33333 µM, 72 h): 12.3%
drug-induced phospholipidosis (A549-ACE2 [9]; 6.66667 µM, 24 h): 71.6%
drug-induced phospholipidosis (A549-ACE2 [9]; 6.66667 µM, 48 h): 73.9%
drug-induced phospholipidosis (A549-ACE2 [9]; 6.66667 µM, 72 h): 69.8%
drug-induced phospholipidosis (A549-ACE2 [9]; 10 µM, 24 h): 99.3%
morphology score ([10]; 0.3 µM): -0.18
morphology score ([10]; 3 µM): 0.74
morphology score ([10]; 10 µM): 0.43
morphology score ([10]; 30 µM): 0.3
relative viability EC50 (Caco-2 [18]): 2.13 µM
relative viability EC50 (Calu-3 [19]): 0.917 µM
relative viability EC50 (HepG2 [11]): 2.57 µM
relative viability EC50 (U2OS [20]): 2.24 µM
relative viability EC50 (Vero E6 [12]): > 10 µM
drug sensitivity score (Caco-2 [13]): 4.2
drug sensitivity score (Calu-3 [14]): 6.7
drug sensitivity score (HepG2 [15]): 4.5
drug sensitivity score (U2OS [16]): 3.9
drug sensitivity score (Vero E6 [17]): 0.7
